# Laboratory results from patent US6063612A, “Antiviral reagents based on RNA-binding proteins” (priority 1991, dated 2000).
# Experiments:
# HIV-1 TAR RNA = assay: RNA cleavage reaction, HIV-1 TAR substrate; type: biochemical; conditions: 40 μM, not bound to RNA-binding protein (control)
# Method: The above described polypeptides were tested for their ability to cleave RNA substrates which contained cognate binding sites. Typically, RNA target molecules containing the binding sites were 5'-end-labeled, purified on denaturing polyacrylamide gels, and annealed for use as substrates for cleavage (Example 2). A typical cleavage reaction contained 10^3 cpm of end-labeled RNA and 40-100 ng of polypeptide. Example 4A describes RNA cleavage reactions utilizing the TAT24C-phen polypeptide. The target RNA was incubated with TAT24C-phen at 25° C. for 10 min before the cleavage was initiated by adding CuSO4 and mercaptopropionic acid. After incubating for a given period of time, the reaction was stopped by the addition of 2,9-dimethyl-1,10-phenanthroline. RNAs were then isolated and analyzed on denaturing 15% sequencing gels. […] This is an expected site of cleavage based on binding of the polypeptide at the three-nucleotide bulge. A possible secondary cleavage site may be due to flexibility of the phenothroline-containing protein of the polypeptide, allowing it to reach to stem on the other side of the binding site.
# Cleavage reactions using the polypeptide-cleaving reagents of the present invention were typically performed as follows. […]
# RNAs from all reactions were ethanol precipitated and analyzed on a denaturing (8.3 M urea) 15% polyacrylamide gel. […]
# [1] = system: wild-type TAR (wt-TAR) site; conditions: RNA containing the TAR site; cited from earlier work
# [2] = system: HIV-1 LTR-linked gene expression; conditions: TAT protein taken up by cells; cited from earlier work
molecule,measurement,setting,value
"Cu(II)-1,10-phenanthroline",cleavage pattern on HIV-1 TAR by free Cu(II)-phenanthroline,HIV-1 TAR RNA,"cleaves everywhere, but the unpaired bases at the loop (especially G32) and the bulge are most reactive"
"synthetic 14-residue polypeptide: synthetic polypeptide spanning the basic region, amino acid residues 48-61 of the TAT protein (GRKKRRQRRRAHQN; UniProt P04608 48-61, looked up, fragment)",binding to TAR-RNA (in words),[1],bound TAR-RNA as well
TAT protein: HIV-1 encoded 86 amino acid transactivator protein (protein) MEPVDPRLEPWKHPGSQPKTACTNCYCKKCCFHCQVCFITKALGISYGRKKRRQRRRPPQGSQTHQVSLSKQPTSQSRGDPTGPKE,effect on HIV-1 LTR-linked gene expression,[2],specifically activates HIV-1 LTR-linked gene expression
